In PubChem BioAssay AID720614 (Broad Institute, 2013):
Results filed as inconclusive are left out. Active and inactive are the calls of the source. The rule behind the calls is not given here.

How the values were obtained:
[1] = caspase 3/7 activation in SNB19 cells, mechanism study for HRAS target identification, cell-based, luminescence, several timepoints, dry powder (AID 720614); details: SNB19 (HRAS) caspase 3/7 apoptosis luminescence, multiple timepoints; for caspase 3/7 activation: at 35 µM (top of the series); for max activity: measured here: timepoint 3 max caspase activation, stronger effect = higher value
[2] = tested on: SNB19 (HRAS) caspase 3/7 apoptosis luminescence, multiple timepoints; test: as above

With `Cc1onc(C(=O)N2CCN(C(c3ccc(Cl)cc3)c3ccc(Cl)cc3)CC2)c1[N+](=O)[O-]` the caspase 3/7 activation [1] was 12.2% (inactive) and the max activity ([1]; at 16 µM) was -17.3%.

For `Cc1onc(C(=O)N2CCN(C(c3ccc(Cl)cc3)c3ccc(OCCOCCOCCNC(=O)OC(C)(C)C)cc3)CC2)c1[N+](=O)[O-]` (stereo unspecified), the caspase 3/7 activation [1] was 12.2% (inactive) and the max activity ([1]; at 0.26 µM) was 25.3%.

In the case of `CO[C@H]1C[C@@H]2CC[C@@H](C)[C@@](O)(O2)C(=O)C(=O)N2CCCC[C@H]2C(=O)O[C@H]([C@H](C)C[C@@H]2CC[C@@H](O)[C@H](OC)C2)CC(=O)[C@H](C)/C=C(\C)[C@@H](O)[C@@H](OC)C(=O)[C@H](C)C[C@H](C)/C=C/C=C/C=C/1C`, the caspase 3/7 activation [1] is reported as 2.8% (inactive), the max activity ([1]; at 0.008 µM) is reported as 32% and the AC40 ([2]; measured here: timepoint 2 caspase activation) is reported as > 35 µM.

With `CCC(=O)N(c1ccc(OC)c(Cl)c1)C(C(=O)NCCc1ccccc1)c1cccs1` (stereo unspecified) the caspase 3/7 activation [1] was -10.3% (inactive) and the max activity ([1]; at 16 µM) was 18.7%.

In the case of `CC(C)(C)OC(=O)NCCOCCOCCOc1ccc(N(C(=O)CCl)C(C(=O)NCCc2ccccc2)c2cccs2)cc1Cl` (stereo unspecified), the max activity ([1]; at 0.5 µM) is reported as 18.7% and the AC40 [2] is reported as > 35 µM (inactive).
